“And” between values parts separate entries of the source, which are not always exact repeats. Equal values may be shown once.
Test system: MIN6 mouse insulinoma cells, cytotoxicity counterscreen
Test: cytotoxicity in MIN6 insulinoma cells, dose response, cytotoxicity control, cell-based, mouse insulinoma (AID 2122)

Q: For `CN(C)c1ccnc2c[cH-]cc12.[Fe].c1ccc(-[c-]2[c-](-c3ccccc3)[c-](-c3ccccc3)[c-](-c3ccccc3)[c-]2-c2ccccc2)cc1` (stereo unspecified), which IC50 is on record?
A: 4.89 µM and 2.24 µM

Reference: PubChem BioAssay AID2122 (Sanford-Burnham Center for Chemical Genomics, 2009)
